From patent publication US20230286969A1, “AROMATIC SPIRO RING AMIDE DERIVATIVES FOR THE TREATMENT AND PROPHYLAXIS OF HEPATITIS B VIRUS INFECTION” (Hoffmann-La Roche Inc., priority 2020, published 2023) come the findings set out here.

Common to all, as to format: cell-based
The subject of one data set is HBsAg. The experiment in a line: PHH HBV natural infection assay, HBsAg (alphalisa). The protocol:
(§1) Detailed procedures regarding primary human hepatocyte (PHH) HBV natural infection assay are described as below. One tube of frozen PHH (10 million cells) is thawed in 37° C. water bath and then transferred to 20 mL of PHH thawing medium (Sigma, InVitroGRO HT Medium, Cat. S03319) with gently mixing. The cells were then centrifuged at […] for 5 min, the supernatant was discarded and the tube was refilled with 25 mL of PHH plating medium (Sigma, InVitroGRO CP Medium, Cat. S03317). The tube was shaken very gently to re-suspend all cells, and then 50 μl of cells were transferred to each well 384-well collagen I coated plate with appropriate liquid handling equipment, e.g. Integra VIAFLO384 or Agilent Bravo. The cells were then cultured for 24 hours in a cell incubator. For HBV infection, after PHH attachment on the culture plate, the plating medium was removed and replenished with PHH culture medium containing HBV virus. The PHH culture medium was prepared with Dulbecco's Modified Eagle Medium (DMEM)/F12 (1:1 in volume ratio) containing 10% fetal bovine serum (Gibco, Cat. 10099141), 5 ng/mL human epidermal growth factor (Gibco, Cat.PHG0311L), 20 ng/mL dexamethasone (Sigma, Cat.D4902-100 mg), 250 ng/mL human recombinant insulin (Gibco, Cat.41400045) and 100 U/mL penicillin. HBV virus at 200 genome equivalent (GE) per cell with 4% PEG8000 (Sigma, Cat.P1458) containing culture medium were added to the PHH culture medium for infection. The cells were then cultured for 24 hours in cell incubator. Then the cell culture supernatant was removed. The HBV-infected PHH were cultured with sandwich culture method with PHH culture medium containing 1% DMSO and 0.25 mg/mL matrix gel for 72 hours. The supernatant was then refreshed with PHH culture medium containing different concentrations of testing compounds for two times with 72-hour interval. At the end of treatment, the supernatant was collected for viral markers measurements, including HBsAg, HBeAg, HBV DNA and cytotoxicity. HBsAg and HBeAg were detected using alphalisa method using their specific antibodies. For HBV DNA detection, HBV DNA Quantitative Fluorescence Diagnostic Kit (Sansure Biotech Inc.) was used following the manufacture's protocol. Cytotoxicity was determined using Cell Counting Kit-8 (CCK8, Dojindo Molecular Technologies, Inc.).
(§2) The compounds of the present invention were tested for their capacity to inhibit HBsAg and HBeAg as described herein.
Background: Bead proximity is the source of the signal in Alpha formats.

The next data set concerns HBeAg. The experiment in a line: PHH HBV natural infection assay, HBeAg (alphalisa). On the procedure:
as §1, §2

The nature of data set [1]: PHH natural infection assay, cytotoxicity (Cell Counting Kit-8). The following applies: human, HBV-infected primary human hepatocytes, CCK8, end of treatment. On the procedure:
as §1

Setting [2] is: Hepatitis B virus, Hepatocyte, 72 h, read-out: HBsAg IC50, HBV-infected primary human hepatocytes, supernatant, compound medium refreshed two times with 72-hour interval.
Setting [3] is: Hepatitis B virus, Hepatocyte, 72 h, read-out: HbeAg IC50, HBV-infected primary human hepatocytes, supernatant, compound medium refreshed two times with 72-hour interval.
Where [4] appears, read: read-out: HBsAg IC50, HBV-infected primary human hepatocytes, supernatant, compound medium refreshed two times with 72-hour interval.
[5] abbreviates: read-out: HbeAg IC50, HBV-infected primary human hepatocytes, supernatant, compound medium refreshed two times with 72-hour interval.

Usually IC50 stands for the concentration that gives 50% inhibition. The term CC50 denotes the concentration that lowers cell viability or growth by half.

Each structure is given as a SMILES string. Like-named read-outs stand apart in the source and are kept apart here. Bounds are passed on as bounds.

Take `[H][C@]1(NC(=O)c2ccc([S@](C)(=N)=O)o2)C[C@]2(C1)C[C@]([H])(c1nc3cc(Cl)ccc3o1)C2` (stereo partly drawn) [Example 52-d, (Ra)—N-[6-(5-chloro-1,3-benzoxazol-2-yl)spiro[3.3]heptan-2-yl]-5-[(R)-methylsulfonimidoyl]furan-2-carboxamide]: the half-maximal inhibitory concentration (IC50) was found to be 0.966 µM with HBsAg (setting [2]) and 0.876 µM with HBeAg (setting [3]). For the same molecule, the CC50 at 144 h in data set [1] is > 100 µM.
For `O=C(NC1CC2(C1)CC(c1nc3cc(Cl)ccc3o1)C2)c1ccc(S(=O)(=O)CC2CC(F)(F)C2)o1` (stereo not drawn) [Example 27, N-[6-(5-chloro-1,3-benzoxazol-2-yl)spiro[3.3]heptan-2-yl]-5-[(3,3-difluorocyclobutyl)methylsulfonyl]furan-2-carboxamide], in that order: 0.152 µM, 0.116 µM and > 100 µM.
`CS(=O)(=O)c1ccc(C(=O)NC2CC3(C2)CC(c2nc4cc(Cl)ccc4o2)C3)o1` (stereo not drawn) [Example 15, N-[6-(5-chloro-1,3-benzoxazol-2-yl)spiro[3.3]heptan-2-yl]-5-methylsulfonyl-furan-2-carboxamide]: the IC50 came to 1.95 µM in the data set with HBsAg (setting [2]) and 1.17 µM with HBeAg (setting [3]). In data set [1], the midpoint of cytotoxicity, the CC50 at 144 h, lay at 79 µM.
With `O=C(NC1CC2(C1)CC(c1nc3cc(Cl)cnc3o1)C2)c1ccc([S+]([O-])C2CC2)o1` (stereo not drawn) [Example 50, N-[6-(6-chlorooxazolo[5,4-b]pyridin-2-yl)spiro[3.3]heptan-2-yl]-5-cyclopropylsulfinyl-furan-2-carboxamide], the values for the IC50 in the data set on HBsAg (setting [2]) and in the data set with HBeAg (setting [3]) were 0.54 µM and 0.35 µM, respectively. Besides, the CC50 at 144 h in data set [1] is > 100 µM.
With `Cn1cc(C(=O)NC2CC3(C2)CC(c2nc4cc(Cl)ccc4o2)C3)cn1` (stereo not drawn) [Example 13, N-[6-(5-chloro-1,3-benzoxazol-2-yl)spiro[3.3]heptan-2-yl]-1-methyl-pyrazole-4-carboxamide], the IC50 with HBsAg (setting [2]) was 9.81 µM; in the data set with HBeAg (setting [3]), 6.2 µM. In data set [1], the CC50 at 144 h is > 100 µM.
For `N=S(=O)(c1ccc(C(=O)NC2CC3(C2)CC(c2nc4cc(Cl)ccc4o2)C3)o1)C1CC1` (stereo not drawn) [Example 53, N-[6-(5-chloro-1,3-benzoxazol-2-yl)spiro[3.3]heptan-2-yl]-5-(cyclopropylsulfonimidoyl)furan-2-carboxamide], in that order: 0.494 µM, 0.394 µM and > 10 µM.
As to `O=C(NC1CC2(C1)CC(c1nc3cc(Cl)cnc3o1)C2)c1ccc(S(=O)(=O)C2CC2)o1` (single isomer, unassigned) [Example 49-a, N-[6-(6-chlorooxazolo[5,4-b]pyridin-2-yl)spiro[3.3]heptan-2-yl]-5-cyclopropylsulfonyl-furan-2-carboxamide], the values for the IC50 with HBsAg (setting [4]) and in the data set with HBeAg (setting [5]) were 4.17 µM and 4.25 µM, respectively. In addition, in data set [1], the CC50 at 144 h was determined as 81.1 µM.
On to `N=S(=O)(c1ccc(C(=O)NC2CC3(C2)CC(c2nc4cc(Cl)cnc4o2)C3)o1)C1CC1` (stereo not drawn) [Example 64, N-[6-(6-chlorooxazolo[5,4-b]pyridin-2-yl)spiro[3.3]heptan-2-yl]-5-(cyclopropylsulfonimidoyl)furan-2-carboxamide], for which the IC50 is 2.93 µM with HBsAg (setting [2]) and 2.33 µM in the data set on HBeAg (setting [3]). In data set [1], the CC50 at 144 h is > 100 µM.
For `O=C(NC1CC2(C1)CC(c1nc3cc(Cl)ccc3o1)C2)c1ccc(S(=O)(=O)C(F)(F)F)o1` (stereo not drawn) [Example 43, N-[6-(5-chloro-1,3-benzoxazol-2-yl)spiro[3.3]heptan-2-yl]-5-(trifluoromethylsulfonyl)furan-2-carboxamide], in that order: 1.14 µM, 0.839 µM and > 100 µM.
On to `O=C(NC1CC2(C1)CC(c1nc3cc(Cl)ccc3o1)C2)c1ccc(C(F)(F)F)o1` (stereo not drawn) [Example 1, N-[6-(5-chloro-1,3-benzoxazol-2-yl)spiro[3.3]heptan-2-yl]-5-(trifluoromethyl)furan-2-carboxamide], for which the IC50 was 3.63 µM with HBsAg (setting [2]) and 2.29 µM in the data set with HBeAg (setting [3]). Further, the midpoint of cytotoxicity in data set [1], the CC50 at 144 h, lay at 96.8 µM.
On to `CS(=N)(=O)c1ccc(C(=O)NC2CC3(C2)CC(c2nc4cc(Cl)ccc4o2)C3)o1` (single isomer, unassigned) [Example 52-a, N-[6-(5-chloro-1,3-benzoxazol-2-yl)spiro[3.3]heptan-2-yl]-5-(methylsulfonimidoyl)furan-2-carboxamide], for which the half-inhibitory concentration (IC50) is 4.26 µM in the data set with HBsAg (setting [4]) and 1.77 µM in the data set with HBeAg (setting [5]). In addition, in data set [1], the CC50 at 144 h was > 100 µM.
On to `O=C(NC1CC2(C1)CC(c1nc3cc(Cl)ccc3o1)C2)c1ccc(S(=O)(=O)NC(=O)C2CCOCC2)o1` (stereo not drawn) [Example 87, N-[[5-[[6-(5-chloro-1,3-benzoxazol-2-yl)spiro[3.3]heptan-2-yl]carbamoyl]-2-furyl]sulfonyl]tetrahydropyran-4-carboxamide], for which the figures for the IC50 in the data set with HBsAg (setting [2]) and in the data set on HBeAg (setting [3]) were 1.3 µM and 0.981 µM, respectively. The CC50 at 144 h in data set [1] is > 10 µM.
With `NS(=O)(=O)NCc1ccc(C(=O)NC2CC3(C2)CC(c2nc4cc(Cl)ccc4o2)C3)o1` (stereo not drawn) [Example 35, N-[6-(5-chloro-1,3-benzoxazol-2-yl)spiro[3.3]heptan-2-yl]-5-[(sulfamoylamino)methyl]furan-2-carboxamide], the half-inhibitory concentration (IC50) with HBsAg (setting [2]) turned out to be 7.81 µM; in the data set on HBeAg (setting [3]) it was 6.53 µM. The CC50 at 144 h in data set [1] is 98.3 µM.
For `O=C(N[C@H]1CC2(C1)C[C@H](c1nc3cc(Cl)ccc3o1)C2)c1ccc(S(=O)(=O)NC(=O)C2CCC2)o1` (single isomer, unassigned) [Example 72, (Sa)—N-[6-(5-chloro-1,3-benzoxazol-2-yl)spiro[3.3]heptan-2-yl]-5-(cyclobutanecarbonylsulfamoyl)furan-2-carboxamide, or (Ra)—N-[6-(5-chloro-1,3-benzoxazol-2-yl)spiro[3.3]heptan-2-yl]-5-(cyclobutanecarbonylsulfamoyl)furan-2-carboxamide], in that order: 0.314 µM, 0.386 µM and > 100 µM.
For `NS(=O)(=O)Cc1ccc(C(=O)NC2CC3(C2)CC(c2nc4cc(Cl)ccc4o2)C3)o1` (stereo not drawn) [Example 33, N-[6-(5-chloro-1,3-benzoxazol-2-yl)spiro[3.3]heptan-2-yl]-5-(sulfamoylmethyl)furan-2-carboxamide], the IC50 came out at 1.41 µM in the data set on HBsAg (setting [2]) and 1.39 µM with HBeAg (setting [3]). Moreover, the CC50 at 144 h in data set [1] is > 100 µM.
Consider `O=C(NC1CC2(C1)CC(c1nc3cnc(Cl)cc3o1)C2)c1ccc(S(=O)(=O)C2CC2)o1` (stereo not drawn) [Example 51, N-[6-(6-chlorooxazolo[4,5-c]pyridin-2-yl)spiro[3.3]heptan-2-yl]-5-cyclopropylsulfonyl-furan-2-carboxamide], for which the IC50 was 1.8 µM in the data set with HBsAg (setting [2]) and 1.15 µM with HBeAg (setting [3]). For the same molecule, in data set [1], the CC50 at 144 h was > 100 µM.
Turning to `O=C(N[C@H]1CC2(C1)C[C@H](c1nc3cc(Cl)ccc3o1)C2)c1ccc(S(=O)(=O)NC(=O)C2CCOC2)o1` (stereo partly drawn) [Example 77, (Sa)—N-[6-(5-chloro-1,3-benzoxazol-2-yl)spiro[3.3]heptan-2-yl]-5-(tetrahydrofuran-3-carbonylsulfamoyl)furan-2-carboxamide, or (Ra)—N-[6-(5-chloro-1,3-benzoxazol-2-yl)spiro[3.3]heptan-2-yl]-5-(tetrahydrofuran-3-carbonylsulfamoyl)furan-2-carboxamide], the IC50 with HBsAg (setting [2]) worked out at 1.16 µM; in the data set on HBeAg (setting [3]), 0.563 µM. Moreover, in data set [1], the CC50 at 144 h was > 100 µM.
Take `O=C(NC1CC2(C1)CC(c1nc3cc(Cl)ccc3o1)C2)c1ccc([S+]([O-])C2CC2)o1` (stereo not drawn) [Example 40, N-[6-(5-chloro-1,3-benzoxazol-2-yl)spiro[3.3]heptan-2-yl]-5-cyclopropylsulfinyl-furan-2-carboxamide]: the IC50 in the data set on HBsAg (setting [2]) turned out to be 0.084 µM; in the data set with HBeAg (setting [3]) it was 0.067 µM. Moreover, in data set [1], the CC50 at 144 h is > 10 µM.
Consider `O=C(NC1CC2(C1)CC(c1nc3cc(Cl)ccc3o1)C2)c1ccc(S(=O)(=O)C2CC2)o1` (stereo not drawn) [Example 17, N-[6-(5-chloro-1,3-benzoxazol-2-yl)spiro[3.3]heptan-2-yl]-5-cyclopropylsulfonyl-furan-2-carboxamide], for which the figures for the IC50 with HBsAg (setting [2]) and with HBeAg (setting [3]) were 0.275 µM and 0.177 µM, respectively. The CC50 at 144 h in data set [1] came out at 89.9 µM.
